Publication PMC7479175, “Selection of Potent Inhibitors of Soluble Epoxide Hydrolase for Usage in Veterinary Medicine” (Frontiers in Veterinary Science, 2020)
Where two headings read alike, the source gives them in different places.

How the values were obtained:
Assay in all cases: sEH inhibition potency (IC50), radioactive assay with [3H]t-DPPO, liver cytosol
Type in all cases: biochemical
[1] = target: T1, sEH activity from liver cytosol of Hamster (Mesocricetus auratus, UniProt A0A1U7QV09); conditions: [3H]t-DPPO ([S]final = 5 μM) as substrate
T1 sequence (A0A1U7QV09 1-554): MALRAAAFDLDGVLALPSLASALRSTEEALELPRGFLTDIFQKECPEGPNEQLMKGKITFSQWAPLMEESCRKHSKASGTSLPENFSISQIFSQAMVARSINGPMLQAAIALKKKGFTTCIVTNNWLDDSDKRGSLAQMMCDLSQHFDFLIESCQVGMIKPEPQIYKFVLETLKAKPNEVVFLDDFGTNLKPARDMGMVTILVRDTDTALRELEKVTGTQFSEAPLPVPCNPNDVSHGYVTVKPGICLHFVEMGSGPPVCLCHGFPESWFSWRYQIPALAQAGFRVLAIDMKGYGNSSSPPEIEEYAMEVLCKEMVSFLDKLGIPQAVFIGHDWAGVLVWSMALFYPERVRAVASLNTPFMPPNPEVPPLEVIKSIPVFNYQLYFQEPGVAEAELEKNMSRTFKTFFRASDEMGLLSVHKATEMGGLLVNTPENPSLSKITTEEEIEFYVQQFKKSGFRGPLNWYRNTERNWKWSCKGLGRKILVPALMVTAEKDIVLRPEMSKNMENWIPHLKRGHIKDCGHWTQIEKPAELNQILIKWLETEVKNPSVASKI
Description: (§1) Fresh liver tissues samples (5–30 g) were collected promptly after death from healthy adult cat, dog and horse euthanized for reasons unrelated to this study, and whose bodies were given to science by the owners in line with federal regulations and protocol approved by the Institutional Animal Care and Use Committee at University of California Davis. Similarly, tissues from the other animals tested herein were collected from healthy animals immediately after being slaughter at the university abattoir. Because no animals were directly used or killed for this study, sample collections were exempted from approval by the Institutional Animal Care and Use Committee of the University of California Davis and Michigan State University. […] The tissues were flash-frozen in liquid nitrogen following removal, and then kept at −80°C until used. After thawing on ice, the samples were homogenized in chilled sodium phosphate buffer (20 mM pH 7.4) containing 5 mM EDTA, 1 mM DTT and 1 mM PMSF (tissue weight:buffer volume ratio 1:4). These homogenates were centrifuged at 100,000 g for 60 min at 4°C. The supernatant (the cytosolic fraction) was separated from the pellet, aliquoted and flash frozen in liquid nitrogen, then kept frozen at −80°C until usage.
(§2) The IC50 values reported herein were determined using either a fluorescent based assay (CMNPC as substrate) for purified enzyme preparations or a radioactive based assay ([^3H]t-DPPO as substrate) for crude enzyme preparations ([20]). The fluorescent assay was used with the purified proteins. […] The substrate (CMNPC) was then added ([S]final = 5 μM). […] The radioactive […] assay was used with the liver crude extracts. Extracts were incubated with inhibitors ([I]final = 1–1,000 nM) at 30° C for 5 min in sodium phosphate buffer (pH 7.4) containing 0.1 mg/mL of BSA and 1% of DMSO, prior to substrate introduction ([^3H]t-DPPO [S]final: 50 μM; ~12,000 dpm/assay). The enzymes were incubated at 30°C for 10 min, and the reaction was quenched by the addition of 60 μL methanol and 200 μL isooctane, which extracts the remaining epoxide from the aqueous phase. […] Assays were performed in triplicate.

[2] = target: sEH activity from liver cytosol of Sheep (Ovis aries, UniProt A0ACI6PZ20)
sEH activity from liver cytosol of Sheep, sequence (A0ACI6PZ20 entry or part of it): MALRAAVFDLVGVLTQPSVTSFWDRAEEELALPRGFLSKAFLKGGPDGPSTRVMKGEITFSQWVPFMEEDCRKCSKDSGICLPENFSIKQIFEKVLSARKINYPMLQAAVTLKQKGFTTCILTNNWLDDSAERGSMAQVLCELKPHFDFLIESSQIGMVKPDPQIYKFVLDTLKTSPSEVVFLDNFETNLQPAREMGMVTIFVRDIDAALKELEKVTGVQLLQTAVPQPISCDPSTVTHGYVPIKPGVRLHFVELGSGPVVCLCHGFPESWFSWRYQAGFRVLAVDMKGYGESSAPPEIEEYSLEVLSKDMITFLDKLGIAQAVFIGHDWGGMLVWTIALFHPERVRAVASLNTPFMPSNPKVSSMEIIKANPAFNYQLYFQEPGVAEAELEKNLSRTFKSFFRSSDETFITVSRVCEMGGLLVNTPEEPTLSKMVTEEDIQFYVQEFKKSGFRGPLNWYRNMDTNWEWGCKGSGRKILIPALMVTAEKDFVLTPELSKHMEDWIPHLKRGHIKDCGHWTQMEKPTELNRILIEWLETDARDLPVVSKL
Description: as §1, §2

[3] = target: T2, sEH activity from liver cytosol of Rat (Rattus norvegicus, UniProt P80299)
T2 construct: The radioactive fluorescent assay was used with the liver crude extracts; from tissue; host or cells: rat liver cytosol (100,000 g supernatant)
T2 sequence (P80299 1-554): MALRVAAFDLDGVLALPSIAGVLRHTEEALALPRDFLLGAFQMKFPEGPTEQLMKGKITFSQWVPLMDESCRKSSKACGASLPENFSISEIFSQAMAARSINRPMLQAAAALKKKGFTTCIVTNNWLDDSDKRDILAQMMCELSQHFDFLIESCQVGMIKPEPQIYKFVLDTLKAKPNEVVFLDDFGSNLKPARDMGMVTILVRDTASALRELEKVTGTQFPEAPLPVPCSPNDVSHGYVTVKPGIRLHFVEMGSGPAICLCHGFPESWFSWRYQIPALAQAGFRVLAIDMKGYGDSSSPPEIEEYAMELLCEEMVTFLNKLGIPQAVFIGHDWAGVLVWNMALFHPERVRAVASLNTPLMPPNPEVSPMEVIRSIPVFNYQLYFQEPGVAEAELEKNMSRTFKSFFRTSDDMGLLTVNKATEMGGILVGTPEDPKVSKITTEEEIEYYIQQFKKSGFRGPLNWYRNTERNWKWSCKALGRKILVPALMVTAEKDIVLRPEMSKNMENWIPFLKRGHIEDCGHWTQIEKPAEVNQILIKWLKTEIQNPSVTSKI
Description: as §1, §2

[4] = target: T3, sEH activity from liver cytosol of Pig (Sus scrofa, UniProt Q6Q2C2)
T3 construct: The radioactive fluorescent assay was used with the liver crude extracts; from tissue; host or cells: pig liver cytosol (100,000 g supernatant)
T3 sequence (Q6Q2C2 1-555): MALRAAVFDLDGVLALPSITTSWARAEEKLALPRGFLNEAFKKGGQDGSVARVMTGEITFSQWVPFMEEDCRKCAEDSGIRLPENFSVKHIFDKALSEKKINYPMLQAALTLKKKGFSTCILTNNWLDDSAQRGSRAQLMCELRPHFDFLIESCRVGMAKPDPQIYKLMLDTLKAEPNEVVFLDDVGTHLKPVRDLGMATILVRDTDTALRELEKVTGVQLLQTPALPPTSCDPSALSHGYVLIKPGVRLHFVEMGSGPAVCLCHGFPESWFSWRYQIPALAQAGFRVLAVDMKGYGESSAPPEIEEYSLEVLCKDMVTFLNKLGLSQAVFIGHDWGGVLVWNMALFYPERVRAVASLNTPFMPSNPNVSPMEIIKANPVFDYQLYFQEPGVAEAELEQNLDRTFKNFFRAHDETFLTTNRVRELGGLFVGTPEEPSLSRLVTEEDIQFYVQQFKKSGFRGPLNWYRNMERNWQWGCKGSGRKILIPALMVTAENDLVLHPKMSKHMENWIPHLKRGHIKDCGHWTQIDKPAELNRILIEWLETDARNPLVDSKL
Description: as §1, §2

[5] = [3H]t-DPPO ([S]final = 5 μM) as substrate, read-out: IC50 (nM) Sheep
[6] = liver cytosol, [3H]t-DPPO ([S]final = 5 μM) as substrate, read-out: IC50 (nM) Rat
[7] = liver cytosol, [3H]t-DPPO ([S]final = 5 μM) as substrate, read-out: IC50 (nM) Pig

| SMILES | IC50 [1] [nM] | IC50 [2, 5] [nM] | IC50 [3, 6] [nM] | IC50 [4, 7] [nM] | IC50 ([2]; read-out: IC50 (nM) Sheep, [3H]t-DPPO ([S]final = 5 μM) as substrate) [nM] | IC50 [3] [nM] | IC50 [4] [nM] |
| --- | --- | --- | --- | --- | --- | --- | --- |
| O=C(NCCCCOc1ccc(F)cc1)NC12CC3CC(CC(C3)C1)C2 [1,707] | 2 | 2 | 7 | 6 | – | – | – |
| O=C(Nc1ccc(OC(F)(F)F)cc1)N[C@H]1CC[C@H](Oc2ccc(C(=O)O)cc2)CC1 [1,728, trans-4-{4-[3-(4-trifluoromethoxy-phenyl)-ureido]-cyclohexyloxy}-benzoic acid] | 5 | – | – | – | 6 | 6 | 9 |
| N#CNC(=O)CCCCCCCCCCCNC(=O)NC12CC3CC(CC(C3)C1)C2 [1,845] | 34 | 7 | 12 | 81 | – | – | – |
